From PubChem BioAssay AID588447 (Southern Research Specialized Biocontainment Screening …, 2011)
pIC50: −log10 of the molar value. Values joined by “and” are separate entries in the source; they are usually repeats but may differ in a detail not shown here. Equal entries are not always repeated. Active and inactive are the calls of the source. No rule for the calls is given here.

Key:
[1] = tested on: Mycobacterium tuberculosis H37Rv growth, 7H9 media; experiment: Mycobacterium tuberculosis growth inhibition, dose response, 7H9 media, purified and synthesized compounds, set 8 (AID 588447); details: for pIC50: measured here: IC50 growth inhibition replicates
[2] = as above; details: Mycobacterium tuberculosis H37Rv growth, 7H9 media

SMILES: O=C(c1ccc(CNc2c(N3CCOCC3)c(=O)c2=O)cc1)N1CC=C(c2ccccc2)CC1
- IC90 [1]: 7.8 µM
- pIC50 [1]: 5.60

SMILES: CCC(C)NC(=O)CSc1nc2ccccc2c(=O)[nH]1 (centres undefined)
- IC90 [1]: 8.3 µM
- pIC50 [1]: 5.22

SMILES: CC(C)OC(=O)CSc1ncnc2c1cnn2-c1ccccc1
- pIC50 [1]: 4.47

SMILES: CC1CCCN(C(=O)C2CCC(CNc3c(N4CCCCC4)c(=O)c3=O)CC2)C1 (centres undefined)
- pIC50 [1]: 4.40

SMILES: CCOC(=O)N1CCC(Nc2c(Nc3cccc(CC)c3)c(=O)c2=O)CC1
- IC90 [1]: 87.5 µM
- pIC50 [1]: 4.21

SMILES: COC(=O)CSc1ncnc2c1cnn2-c1ccc(C)cc1C
- IC90 [1]: 5.94 µM
- pIC50 [1]: 5.32

SMILES: O=C(c1ccc(CNc2c(N3CCCC3)c(=O)c2=O)cc1)N1CCc2ccccc2C1
- pIC50 [1]: 5.15

SMILES: Cc1cccc(N2CCN(C(=O)c3ccc(CNc4c(N5CCC(C)CC5)c(=O)c4=O)cc3)CC2C)c1 (centres undefined)
- pIC50 [1]: 4.20

SMILES: CC1CCN(C(=O)c2ccc(CNc3c(N4CCCC4)c(=O)c3=O)cc2)CC1
- pIC50 [1]: 5.04

SMILES: O=C(c1ccc(CNc2c(N3CCCC3)c(=O)c2=O)cc1)N1CC=C(c2ccccc2)CC1
- IC90 [1]: 25.3 µM
- pIC50 [1]: 5.11 and 5.36

SMILES: O=C(NCCc1ccc(Cl)cc1)c1ccc(CNc2c(N3CCOCC3)c(=O)c2=O)cc1
- pIC50 [1]: 5.08 and 5.15

SMILES: CC1CCCN(C(=O)c2ccc(CNc3c(N4CCCCC4)c(=O)c3=O)cc2)C1 (centres undefined)
- pIC50 [1]: 5.15

SMILES: CC1CC(C)CN(C(=O)c2ccc(CNc3c(N4CCCC4)c(=O)c3=O)cc2)C1 (centres undefined)
- pIC50 [1]: 4.91

SMILES: COc1ccc(N2CCN(C(=O)c3ccc(CNc4c(N5CCOCC5)c(=O)c4=O)cc3)CC2)cc1
- pIC50 [1]: 4.97 and 5.02

SMILES: CCOC(=O)CSc1ncnc2c1cnn2-c1ccc(C)cc1C
- IC90 [1]: 5.85 µM
- pIC50 [1]: 5.37

SMILES: O=C(NCCc1ccc(Cl)cc1)C1CCC(CNc2c(N3CCCCC3)c(=O)c2=O)CC1 (centres undefined)
- pIC50 [1]: 4.25

SMILES: CC(=O)c1ccc(NC(=O)c2ccc(CNc3c(N4CCOCC4)c(=O)c3=O)cc2)cc1
- pIC50 [1]: 4.12

SMILES: CCOc1ccc(NC(=O)c2ccc(CNc3c(N4CCCC4)c(=O)c3=O)cc2)cc1
- growth inhibition ([2]; at 100 µM (top of the series)): -0.71% (inactive)

SMILES: CCOC(=O)CSc1ncnc2c1cnn2-c1ccccc1
- pIC50 [1]: 4.57

SMILES: Cc1cccc(N2CCN(C(=O)c3ccc(CNc4c(N5CCC(C)CC5)c(=O)c4=O)cc3)CC2)c1C
- growth inhibition ([2]; at 75 µM (top of the series)): 15.6% (inactive)
- pIC50 [1]: 4.61

SMILES: CC1CC(C)CN(C(=O)C2CCC(CNc3c(N4CCCCC4)c(=O)c3=O)CC2)C1 (centres undefined)
- pIC50 [1]: 4.70 and 4.58

SMILES: O=C(C1CCC(CNc2c(N3CCCCC3)c(=O)c2=O)CC1)N1CCCCC1 (centres undefined)
- pIC50 [1]: 4.51
